Data: patent US20230017045A1, “PYRIDINE AND PYRIMIDINE CARBOXYLATE HERBICIDES AND METHODS OF USE THEREOF” (Dow AgroSciences LLC, priority 2017, published 2023)

Each compound was assayed on test plant species (assay: Post-emergent herbicidal activity test (greenhouse, foliar spray, visual growth reduction)). Settings: post-emergence, 336 h, ALOMY: blackgrass (Alopecurus myosuroides), 140 g ai/ha, 14 days after application, read-out: Visual Growth Reduction (%) 14 Days After Application, ALOMY.
Format: in vivo
Procedure, shortened: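 Greenhouse plants at first–second true leaf stage sprayed overhead at 187 L/ha with compound in acetone/water/isopropanol/DMSO/crop oil/X-77 carrier; controls received solvent blank. Injury rated visually after 14 d on a 0–100% scale versus untreated and control plants, converted to growth reduction.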

| SMILES | pest or weed control at 140 g/ha [%] |
| --- | --- |
| COC(=O)c1nc(-c2c(F)cc(Cl)cc2Cl)ccc1Cl [F62, Methyl 3-chloro-6-(2,4-dichloro-6-fluorophenyl) picolinate] | 0 to 29 |
| COC(=O)c1nc(-c2ccc(C(F)(F)F)cc2Cl)cc(C#N)c1Cl [F11, Methyl 3-chloro-6-(2-chloro-4-(trifluoromethyl)phenyl)-4-cyanopicolinate] | 0 to 29 |

Same assay, conditions: post-emergence, 336 h, AMARE: redroot pigweed (Amaranthus retroflexus), 140 g ai/ha, 14 days after application, read-out: Visual Growth Reduction (%) 14 Days After Application, AMARE

| SMILES | pest or weed control at 140 g/ha [%] |
| --- | --- |
| COC(=O)c1nc(-c2c(F)cc(Cl)cc2Cl)ccc1Cl [F62, Methyl 3-chloro-6-(2,4-dichloro-6-fluorophenyl) picolinate] | 95 to 100 |
| COC(=O)c1nc(-c2ccc(C(F)(F)F)cc2Cl)cc(C#N)c1Cl [F11, Methyl 3-chloro-6-(2-chloro-4-(trifluoromethyl)phenyl)-4-cyanopicolinate] | 0 to 29 |

Same assay, conditions: post-emergence, 336 h, AVEFA: wild oat (Avena fatua), 140 g ai/ha, 14 days after application, read-out: Visual Growth Reduction (%) 14 Days After Application, AVEFA

| SMILES | pest or weed control at 140 g/ha [%] |
| --- | --- |
| COC(=O)c1nc(-c2c(F)cc(Cl)cc2Cl)ccc1Cl [F62, Methyl 3-chloro-6-(2,4-dichloro-6-fluorophenyl) picolinate] | 0 to 29 |
| COC(=O)c1nc(-c2ccc(C(F)(F)F)cc2Cl)cc(C#N)c1Cl [F11, Methyl 3-chloro-6-(2-chloro-4-(trifluoromethyl)phenyl)-4-cyanopicolinate] | 0 to 29 |

Same assay, conditions: post-emergence, 336 h, CHEAL: lambsquarters (Chenopodium album), 140 g ai/ha, 14 days after application, read-out: Visual Growth Reduction (%) 14 Days After Application, CHEAL

| SMILES | pest or weed control at 140 g/ha [%] |
| --- | --- |
| COC(=O)c1nc(-c2c(F)cc(Cl)cc2Cl)ccc1Cl [F62, Methyl 3-chloro-6-(2,4-dichloro-6-fluorophenyl) picolinate] | 75 to 84 |
| COC(=O)c1nc(-c2ccc(C(F)(F)F)cc2Cl)cc(C#N)c1Cl [F11, Methyl 3-chloro-6-(2-chloro-4-(trifluoromethyl)phenyl)-4-cyanopicolinate] | 0 to 29 |

Same assay, conditions: post-emergence, 336 h, CIRAR: canada thistle (Cirsium arvense), 140 g ai/ha, 14 days after application, read-out: Visual Growth Reduction (%) 14 Days After Application, CIRAR

| SMILES | pest or weed control at 140 g/ha [%] |
| --- | --- |
| COC(=O)c1nc(-c2c(F)cc(Cl)cc2Cl)ccc1Cl [F62, Methyl 3-chloro-6-(2,4-dichloro-6-fluorophenyl) picolinate] | 75 to 84 |
| COC(=O)c1nc(-c2ccc(C(F)(F)F)cc2Cl)cc(C#N)c1Cl [F11, Methyl 3-chloro-6-(2-chloro-4-(trifluoromethyl)phenyl)-4-cyanopicolinate] | 30 to 44 |

Same assay, conditions: post-emergence, 336 h, CYPES: yellow nutsedge (Cyperus esculentus), 140 g ai/ha, 14 days after application, read-out: Visual Growth Reduction (%) 14 Days After Application, CYPES

| SMILES | pest or weed control at 140 g/ha [%] |
| --- | --- |
| COC(=O)c1nc(-c2c(F)cc(Cl)cc2Cl)ccc1Cl [F62, Methyl 3-chloro-6-(2,4-dichloro-6-fluorophenyl) picolinate] | 0 to 29 |
| COC(=O)c1nc(-c2ccc(C(F)(F)F)cc2Cl)cc(C#N)c1Cl [F11, Methyl 3-chloro-6-(2-chloro-4-(trifluoromethyl)phenyl)-4-cyanopicolinate] | 0 to 29 |

Same assay, conditions: post-emergence, 336 h, DIGSA: crabgrass (Digitaria sanguinalis), 140 g ai/ha, 14 days after application, read-out: Visual Growth Reduction (%) 14 Days After Application, DIGSA

| SMILES | pest or weed control at 140 g/ha [%] |
| --- | --- |
| COC(=O)c1nc(-c2c(F)cc(Cl)cc2Cl)ccc1Cl [F62, Methyl 3-chloro-6-(2,4-dichloro-6-fluorophenyl) picolinate] | 75 to 84 |
| COC(=O)c1nc(-c2ccc(C(F)(F)F)cc2Cl)cc(C#N)c1Cl [F11, Methyl 3-chloro-6-(2-chloro-4-(trifluoromethyl)phenyl)-4-cyanopicolinate] | 0 to 29 |

Same assay, conditions: post-emergence, 336 h, IPOHE: ivy-leaf morning glory (Ipomoea hederacea), 140 g ai/ha, 14 days after application, read-out: Visual Growth Reduction (%) 14 Days After Application, IPOHE

| SMILES | pest or weed control at 140 g/ha [%] |
| --- | --- |
| COC(=O)c1nc(-c2c(F)cc(Cl)cc2Cl)ccc1Cl [F62, Methyl 3-chloro-6-(2,4-dichloro-6-fluorophenyl) picolinate] | 95 to 100 |

Same assay, conditions: post-emergence, 336 h, KCHSC: kochia (Bassia scoparia), 140 g ai/ha, 14 days after application, read-out: Visual Growth Reduction (%) 14 Days After Application, KCHSC

| SMILES | pest or weed control at 140 g/ha [%] |
| --- | --- |
| COC(=O)c1nc(-c2c(F)cc(Cl)cc2Cl)ccc1Cl [F62, Methyl 3-chloro-6-(2,4-dichloro-6-fluorophenyl) picolinate] | 60 to 74 |

Same assay, conditions: post-emergence, 336 h, ORYSA: rice (Oryza sativa), 140 g ai/ha, 14 days after application, read-out: Visual Growth Reduction (%) 14 Days After Application, ORYSA

| SMILES | pest or weed control at 140 g/ha [%] |
| --- | --- |
| COC(=O)c1nc(-c2c(F)cc(Cl)cc2Cl)ccc1Cl [F62, Methyl 3-chloro-6-(2,4-dichloro-6-fluorophenyl) picolinate] | 0 to 29 |

Same assay, conditions: post-emergence, 336 h, SETFA: giant foxtail (Setaria faberi), 140 g ai/ha, 14 days after application, read-out: Visual Growth Reduction (%) 14 Days After Application, SETFA

| SMILES | pest or weed control at 140 g/ha [%] |
| --- | --- |
| COC(=O)c1nc(-c2c(F)cc(Cl)cc2Cl)ccc1Cl [F62, Methyl 3-chloro-6-(2,4-dichloro-6-fluorophenyl) picolinate] | 75 to 84 |

Same assay, conditions: post-emergence, 336 h, SORVU: grain sorghum (Sorghum vulgare), 140 g ai/ha, 14 days after application, read-out: Visual Growth Reduction (%) 14 Days After Application, SORVU

| SMILES | pest or weed control at 140 g/ha [%] |
| --- | --- |
| COC(=O)c1nc(-c2c(F)cc(Cl)cc2Cl)ccc1Cl [F62, Methyl 3-chloro-6-(2,4-dichloro-6-fluorophenyl) picolinate] | 85 to 94 |

Same assay, conditions: post-emergence, 336 h, STEME: common chickweed (Stellaria media), 140 g ai/ha, 14 days after application, read-out: Visual Growth Reduction (%) 14 Days After Application, STEME

| SMILES | pest or weed control at 140 g/ha [%] |
| --- | --- |
| COC(=O)c1nc(-c2c(F)cc(Cl)cc2Cl)ccc1Cl [F62, Methyl 3-chloro-6-(2,4-dichloro-6-fluorophenyl) picolinate] | 0 to 29 |

Same assay, conditions: post-emergence, 336 h, barnyardgrass (Echinochloa crus-galli), 14 Days After Application, 140 g ai/ha, read-out: Visual Growth Reduction (%) ECHCG

| SMILES | pest or weed control at 140 g/ha [%] |
| --- | --- |
| COC(=O)c1nc(-c2ccc(C(F)(F)F)cc2Cl)cc(C#N)c1Cl [F11, Methyl 3-chloro-6-(2-chloro-4-(trifluoromethyl)phenyl)-4-cyanopicolinate] | 0 to 29 |

Same assay, conditions: post-emergence, 336 h, giant foxtail (Setaria faberi), 14 Days After Application, 140 g ai/ha, read-out: Visual Growth Reduction (%) SETFA

| SMILES | pest or weed control at 140 g/ha [%] |
| --- | --- |
| COC(=O)c1nc(-c2ccc(C(F)(F)F)cc2Cl)cc(C#N)c1Cl [F11, Methyl 3-chloro-6-(2-chloro-4-(trifluoromethyl)phenyl)-4-cyanopicolinate] | 0 to 29 |

Same assay, conditions: post-emergence, 336 h, ivy-leaf morning glory (Ipomoea hederacea), 14 Days After Application, 140 g ai/ha, read-out: Visual Growth Reduction (%) IPOHE

| SMILES | pest or weed control at 140 g/ha [%] |
| --- | --- |
| COC(=O)c1nc(-c2ccc(C(F)(F)F)cc2Cl)cc(C#N)c1Cl [F11, Methyl 3-chloro-6-(2-chloro-4-(trifluoromethyl)phenyl)-4-cyanopicolinate] | 30 to 44 |

Same assay, conditions: post-emergence, 336 h, johnsongrass (Sorghum vulgare), 14 Days After Application, 140 g ai/ha, read-out: Visual Growth Reduction (%) SORVU

| SMILES | pest or weed control at 140 g/ha [%] |
| --- | --- |
| COC(=O)c1nc(-c2ccc(C(F)(F)F)cc2Cl)cc(C#N)c1Cl [F11, Methyl 3-chloro-6-(2-chloro-4-(trifluoromethyl)phenyl)-4-cyanopicolinate] | 0 to 29 |

Same assay, conditions: post-emergence, 336 h, kochia (Bassia scoparia), 14 Days After Application, 140 g ai/ha, read-out: Visual Growth Reduction (%) KCHSC

| SMILES | pest or weed control at 140 g/ha [%] |
| --- | --- |
| COC(=O)c1nc(-c2ccc(C(F)(F)F)cc2Cl)cc(C#N)c1Cl [F11, Methyl 3-chloro-6-(2-chloro-4-(trifluoromethyl)phenyl)-4-cyanopicolinate] | 0 to 29 |

Same assay, conditions: post-emergence, 336 h, rice (Oryza sativa), 14 Days After Application, 140 g ai/ha, read-out: Visual Growth Reduction (%) ORYSA

| SMILES | pest or weed control at 140 g/ha [%] |
| --- | --- |
| COC(=O)c1nc(-c2ccc(C(F)(F)F)cc2Cl)cc(C#N)c1Cl [F11, Methyl 3-chloro-6-(2-chloro-4-(trifluoromethyl)phenyl)-4-cyanopicolinate] | 0 to 29 |

Same assay, conditions: post-emergence, 336 h, wheat, spring (Triticum aestivum), 14 Days After Application, 140 g ai/ha, read-out: Visual Growth Reduction (%) TRZAS

| SMILES | pest or weed control at 140 g/ha [%] |
| --- | --- |
| COC(=O)c1nc(-c2ccc(C(F)(F)F)cc2Cl)cc(C#N)c1Cl [F11, Methyl 3-chloro-6-(2-chloro-4-(trifluoromethyl)phenyl)-4-cyanopicolinate] | 0 to 29 |
